Data as given in patent publication US20230000813A1, “COMPOUND FOR THE TREATMENT OF BOVINE OR SWINE RESPIRATORY DISEASE” (Intervet Inc., priority 2016, published 2023).
≈ marks a conversion by molar mass, not a printed value.

How the values were obtained:
Experiment in all cases: MIC, broth-microdilution (CLSI VET01-A4)
Assay type in all cases: cell-based
[1] = test system: Mannheimia haemolytica MH 6374 (ATCC 33396, reference strain); details: Mannheimia haemolytica MH 6374; read-out: MIC MH 6374
How it was run: (§1)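 Compounds were tested in microdilution trays as twofold serial dilutions. The MIC was taken as the lowest concentration with no turbidity visible to the unaided eye, and results were interpreted per CLSI VET01-S3.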

[2] = test system: Mannheimia haemolytica MH 12587 (1071, BRD field isolate, macrolide-resistance: erm+, E+); details: Mannheimia haemolytica MH 12587, macrolide-resistant
How it was run: as §1

[3] = test system: Mannheimia haemolytica MH 6357 (M7/2, reference strain, cattle infection strain); details: Mannheimia haemolytica MH 6357; read-out: MIC MH 6357
How it was run: as §1

[4] = test system: Pasteurella multocida PM 6391 (ATCC 43137, reference strain); details: Pasteurella multocida PM 6391; for MIC: read-out: MIC PM 6391
How it was run: as §1

[5] = test system: Pasteurella multocida PM 6267 (P 2225 (L386), reference strain, mouse infection strain); details: Pasteurella multocida PM 6267; for MIC: read-out: MIC PM 6267
How it was run: as §1

[6] = test system: Mannheimia haemolytica MH 10720 (154, BRD field isolate); details: Mannheimia haemolytica MH 10720; for MIC: read-out: MIC MH 10720
How it was run: as §1

[7] = test system: Pasteurella multocida PM 12080 (IV102277-0093, BRD field isolate); details: Pasteurella multocida PM 12080; for MIC: read-out: MIC PM 12080
How it was run: as §1

[8] = test system: Pasteurella multocida PM 10775 (080130003051, BRD field isolate); details: Pasteurella multocida PM 10775; for MIC: read-out: MIC PM 10775
How it was run: as §1

[9] = test system: Mannheimia haemolytica MH 13093 (XB0472-6014.1, BRD field isolate)
How it was run: (§2)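 Broth microdilution per CLSI VET01-A4 using doubling dilution series of compound. MIC taken as the lowest concentration with no turbidity visible to the unaided eye, interpreted per CLSI VET01-S3.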

[10] = test system: Mannheimia haemolytica MH 13065 (XB0446-6003.9, BRD field isolate)
How it was run: as §2

SMILES	MIC [1] [µM]	MIC MH 12587 [2] [µM]	MIC [3] [µM]	MIC PM 6391 [4]	MIC PM 6267 [5]	MIC MH 10720 [6]	MIC PM 12080 [7]	MIC PM 10775 [8]	MIC [9] [µM]	MIC [10] [µM]	MIC [6] [µM]	MIC [8] [µM]	MIC [4] [µM]	MIC [7] [µM]	MIC [5] [µM]
CC(C)(O)C(NC(=O)c1ccc(C#Cc2ccc(CNCc3ccccn3)cc2)cc1)C(=O)NO (stereo not shown) [Compound 576]	0.4 (≈ 0.189 µg/mL)	1.6 (≈ 0.756 µg/mL)	0.8 (≈ 0.378 µg/mL)	<=0.1 μM	<=0.1 μM	<=0.1 μM	<=0.1 μM	<=0.1 μM	0.8 (≈ 0.378 µg/mL)	0.8 (≈ 0.378 µg/mL)					
Cc1ccc(CNCc2ccc(C#Cc3ccc(C(=O)N[C@H](C(=O)NO)[C@@H](C)O)cc3)cc2)cc1 [Compound 261]	0.2 (≈ 0.0943 µg/mL)	0.8 (≈ 0.377 µg/mL)	0.2 (≈ 0.0943 µg/mL)	<=0.1 μM	<=0.1 μM	<=0.1 μM	<=0.1 μM	<=0.1 μM	0.8 (≈ 0.377 µg/mL)	0.4 (≈ 0.189 µg/mL)					
CC(C)(N)C(NC(=O)c1ccc(C#Cc2ccc(CNCc3ccnc(Cl)c3)cc2)cc1)C(=O)NO (racemic) [Compound 313]	0.8 (≈ 0.405 µg/mL)	1.6 (≈ 0.81 µg/mL)	0.8 (≈ 0.405 µg/mL)	<=0.1 μM	<=0.1 μM		<=0.1 μM		1.6 (≈ 0.81 µg/mL)	1.6 (≈ 0.81 µg/mL)	0.4 (≈ 0.202 µg/mL)	0.2 (≈ 0.101 µg/mL)			
CC(C)(O)C(NC(=O)c1ccc(C#Cc2ccc(CNCc3ccccc3)cc2)cc1)C(=O)NO (stereo not shown) [Compound 569]	0.4 (≈ 0.189 µg/mL)	0.8 (≈ 0.377 µg/mL)	0.8 (≈ 0.377 µg/mL)	<=0.1 μM	<=0.1 μM	<=0.1 μM	<=0.1 μM	<=0.1 μM	0.4 (≈ 0.189 µg/mL)	0.4 (≈ 0.189 µg/mL)					
CC(C)C(NC(=O)c1ccc(C#Cc2ccc(CNCc3ccccn3)cc2)cc1)C(=O)NO (stereo not shown) [Compound 289]	0.8 (≈ 0.365 µg/mL)	1.6 (≈ 0.73 µg/mL)	0.4 (≈ 0.183 µg/mL)		<=0.1 μM			<=0.1 μM	0.8 (≈ 0.365 µg/mL)	0.8 (≈ 0.365 µg/mL)	0.2 (≈ 0.0913 µg/mL)		0.4 (≈ 0.183 µg/mL)	0.4 (≈ 0.183 µg/mL)	
CC(C)(N)C(NC(=O)c1ccc(C#Cc2ccc(CNCc3ccccc3)cc2)cc1)C(=O)NO (racemic) [Compound 321]	0.8 (≈ 0.376 µg/mL)	1.6 (≈ 0.753 µg/mL)	1.6 (≈ 0.753 µg/mL)	<=0.1 μM				<=0.1 μM	1.6 (≈ 0.753 µg/mL)	0.8 (≈ 0.376 µg/mL)	0.4 (≈ 0.188 µg/mL)			0.2 (≈ 0.0941 µg/mL)	0.4 (≈ 0.188 µg/mL)
CC(C)(O)C(NC(=O)c1ccc(C#Cc2ccc(CNCc3ccnc(Cl)c3)cc2)cc1)C(=O)NO (stereo not shown) [Compound 575]	0.4 (≈ 0.203 µg/mL)	0.4 (≈ 0.203 µg/mL)	0.4 (≈ 0.203 µg/mL)	<=0.1 μM	<=0.1 μM	<=0.1 μM	<=0.1 μM	<=0.1 μM	0.4 (≈ 0.203 µg/mL)	0.2 (≈ 0.101 µg/mL)					
C[C@@H](O)[C@H](NC(=O)c1ccc(C#Cc2ccc(CNC3CC3)cc2)cc1)C(=O)NO [C. 103]	0.195 (≈ 0.0795 µg/mL)	0.8 (≈ 0.326 µg/mL)	0.391 (≈ 0.159 µg/mL)		<=0.1 μM		<=0.1 μM	<=0.1 μM	1.6 (≈ 0.652 µg/mL)	0.4 (≈ 0.163 µg/mL)	0.2 (≈ 0.0815 µg/mL)		0.195 (≈ 0.0795 µg/mL)		
Cc1cnc(CNCc2ccc(C#Cc3ccc(C(=O)NC(C(=O)NO)C(C)(C)N)cc3)s2)o1 (racemic) [Compound 636]	0.4 (≈ 0.193 µg/mL)	1.6 (≈ 0.771 µg/mL)	0.8 (≈ 0.385 µg/mL)		<=0.1 μM	<=0.1 μM		<=0.1 μM	0.8 (≈ 0.385 µg/mL)	1.6 (≈ 0.771 µg/mL)			0.4 (≈ 0.193 µg/mL)	0.4 (≈ 0.193 µg/mL)	
COc1ccc(CNCc2ccc(C#Cc3ccc(C(=O)N[C@H](C(=O)NO)[C@@H](C)O)cc3)s2)cc1 [Compound 306]	0.4 (≈ 0.197 µg/mL)	0.8 (≈ 0.395 µg/mL)	0.4 (≈ 0.197 µg/mL)		<=0.1 μM	<=0.1 μM		<=0.1 μM	0.8 (≈ 0.395 µg/mL)	0.4 (≈ 0.197 µg/mL)			0.2 (≈ 0.0987 µg/mL)	0.2 (≈ 0.0987 µg/mL)	
CSC(C)(C)[C@H](NC(=O)c1ccc(C#Cc2ccc(CNCc3ccnc(Cl)c3)cc2)cc1)C(=O)NO [Compound 594]	1.6 (≈ 0.859 µg/mL)	1.6 (≈ 0.859 µg/mL)	1.6 (≈ 0.859 µg/mL)						1.6 (≈ 0.859 µg/mL)	1.6 (≈ 0.859 µg/mL)	0.4 (≈ 0.215 µg/mL)	0.2 (≈ 0.107 µg/mL)	0.8 (≈ 0.43 µg/mL)	0.8 (≈ 0.43 µg/mL)	0.4 (≈ 0.215 µg/mL)
CC(C)(C(NC(=O)c1ccc(C#Cc2ccc(CNCc3ccco3)cc2)cc1)C(=O)NO)S(C)(=O)=O (stereo not shown) [C. 616]	0.2 (≈ 0.105 µg/mL)	0.8 (≈ 0.419 µg/mL)	0.8 (≈ 0.419 µg/mL)	<=0.1 μM	<=0.1 μM	<=0.1 μM	<=0.1 μM	<=0.1 μM	0.4 (≈ 0.209 µg/mL)	0.2 (≈ 0.105 µg/mL)					
CSC(C)(C)[C@H](NC(=O)c1ccc(C#Cc2ccc(CNCc3cccnc3)cc2)cc1)C(=O)NO [Compound 593]	0.8 (≈ 0.402 µg/mL)	0.8 (≈ 0.402 µg/mL)	0.4 (≈ 0.201 µg/mL)		<=0.1 μM			<=0.1 μM	0.8 (≈ 0.402 µg/mL)	0.4 (≈ 0.201 µg/mL)	0.2 (≈ 0.101 µg/mL)		0.8 (≈ 0.402 µg/mL)	0.2 (≈ 0.101 µg/mL)	
CC(C)([C@H](NC(=O)c1ccc(C#Cc2ccc(CNCc3nccs3)s2)cc1)C(=O)NO)S(C)(=O)=O [Compound 745]	0.2 (≈ 0.109 µg/mL)	0.4 (≈ 0.219 µg/mL)	0.4 (≈ 0.219 µg/mL)	<=0.1 μM	<=0.1 μM	<=0.1 μM	<=0.1 μM	<=0.1 μM	0.4 (≈ 0.219 µg/mL)	0.4 (≈ 0.219 µg/mL)					
CSC(C)(C)[C@H](NC(=O)c1ccc(C#Cc2ccc(CNCc3ccccn3)cc2)cc1)C(=O)NO [Compound 595]	1.6 (≈ 0.804 µg/mL)	1.6 (≈ 0.804 µg/mL)	0.8 (≈ 0.402 µg/mL)					<=0.1 μM	0.8 (≈ 0.402 µg/mL)	0.8 (≈ 0.402 µg/mL)	0.2 (≈ 0.101 µg/mL)		0.8 (≈ 0.402 µg/mL)	0.4 (≈ 0.201 µg/mL)	0.2 (≈ 0.101 µg/mL)
CSC(C)(C)C(NC(=O)c1ccc(C#Cc2ccc(CNCc3ccccc3)cc2)cc1)C(=O)NO (stereo not shown) [Compound 585]	1.6 (≈ 0.803 µg/mL)	1.6 (≈ 0.803 µg/mL)	0.8 (≈ 0.401 µg/mL)					<=0.1 μM	0.8 (≈ 0.401 µg/mL)	0.8 (≈ 0.401 µg/mL)	0.2 (≈ 0.1 µg/mL)		0.4 (≈ 0.201 µg/mL)	0.4 (≈ 0.201 µg/mL)	0.2 (≈ 0.1 µg/mL)
C[C@@H](O)[C@H](NC(=O)c1ccc(C#Cc2ccc(CN3CCc4ccccc4C3)o2)cc1)C(=O)NO [Compound 203]	0.8 (≈ 0.379 µg/mL)	1.6 (≈ 0.758 µg/mL)	0.8 (≈ 0.379 µg/mL)		<=0.1 μM	<=0.1 μM		<=0.1 μM	0.8 (≈ 0.379 µg/mL)	0.8 (≈ 0.379 µg/mL)			0.4 (≈ 0.189 µg/mL)	0.2 (≈ 0.0947 µg/mL)	
CC(C)(C(NC(=O)c1ccc(C#Cc2ccc(CNCc3cccnc3)cc2)cc1)C(=O)NO)S(C)(=O)=O (stereo not shown) [C. 613]	0.4 (≈ 0.214 µg/mL)	1.6 (≈ 0.855 µg/mL)	0.8 (≈ 0.428 µg/mL)	<=0.1 μM	<=0.1 μM	<=0.1 μM	<=0.1 μM	<=0.1 μM	0.8 (≈ 0.428 µg/mL)	0.8 (≈ 0.428 µg/mL)					
CC(C)([C@H](NC(=O)c1ccc(C#Cc2ccc(CNCc3cccs3)cc2)cc1)C(=O)NO)S(C)(=O)=O [Compound 617]	0.2 (≈ 0.108 µg/mL)	0.8 (≈ 0.432 µg/mL)	0.4 (≈ 0.216 µg/mL)	<=0.1 μM	<=0.1 μM	<=0.1 μM	<=0.1 μM	<=0.1 μM	0.4 (≈ 0.216 µg/mL)	0.2 (≈ 0.108 µg/mL)					
